Data reported in ChEMBL document CHEMBL5036317, “Identification of Unique Quinazolone Thiazoles as Novel Structural Scaffolds for Potential Gram-Negative Bacterial Conquerors” (J Med Chem, 2021).
Converted amounts (≈) assume the structure as drawn.

What was measured:
[1] = tested on: Staphylococcus aureus; assay: Antibacterial activity against Staphylococcus aureus assessed as inhibition of bacterial growth measured after 24 hrs by two-fold serial dilution method; format: functional
[2] = tested on: Acinetobacter baumannii; assay: Antibacterial activity against Acinetobacter baumanii assessed as inhibition of bacterial growth measured after 24 hrs by two-fold serial dilution method; format: functional
[3] = tested on: Staphylococcus aureus; assay: Antibacterial activity against Staphylococcus aureus ATCC 29213 assessed as inhibition of bacterial growth measured after 24 hrs by two-fold serial dilution method; format: functional
[4] = tested on: Pseudomonas aeruginosa; assay: Antibacterial activity against Pseudomonas aeruginosa ATCC 27853 assessed as inhibition of bacterial growth measured after 24 hrs by two-fold serial dilution method; format: functional
[5] = tested on: Enterococcus faecalis; assay: Antibacterial activity against Enterococcus faecalis assessed as inhibition of bacterial growth measured after 24 hrs by two-fold serial dilution method; format: functional
[6] = tested on: Escherichia coli; assay: Antibacterial activity against Escherichia coli ATCC 25922 assessed as inhibition of bacterial growth measured after 24 hrs by two-fold serial dilution method; format: functional
[7] = tested on: Escherichia coli; assay: Antibacterial activity against Escherichia coli assessed as inhibition of bacterial growth measured after 24 hrs by two-fold serial dilution method; format: functional
[8] = tested on: Pseudomonas aeruginosa; assay: Antibacterial activity against Pseudomonas aeruginosa assessed as inhibition of bacterial growth measured after 24 hrs by two-fold serial dilution method; format: functional
[9] = tested on: Staphylococcus aureus; assay: Antibacterial activity against methicillin-resistant Staphylococcus aureus assessed as inhibition of bacterial growth measured after 24 hrs by two-fold serial dilution method; format: functional
[10] = tested on: Staphylococcus aureus; assay: Antibacterial activity against Staphylococcus aureus ATCC 25923 assessed as inhibition of bacterial growth measured after 24 hrs by two-fold serial dilution method; format: functional
[11] = tested on: Klebsiella pneumoniae; assay: Antibacterial activity against Klebsiella pneumoniae assessed as inhibition of bacterial growth measured after 24 hrs by two-fold serial dilution method; format: functional
[12] = Haemolytic activity in human erythrocytes incubated for 2 hrs; format: ADME, cell-based, Erythrocyte

| SMILES | MIC [1] [µg/mL] | MIC [2] [µg/mL] | MIC [3] [µg/mL] | MIC [4] [µg/mL] | MIC [5] [µg/mL] | MIC [6] [µg/mL] | MIC [7] [µg/mL] | MIC [8] [µg/mL] | MIC [9] [µg/mL] | MIC [10] [µg/mL] | MIC [11] [µg/mL] | HC50 at 2 h [12] [µg/mL] |
| --- | --- | --- | --- | --- | --- | --- | --- | --- | --- | --- | --- | --- |
| O=C(/C(=C/c1cccs1)n1cnc2cc(Cl)ccc2c1=O)c1nccs1 | 16 (≈ 40 µM) | 512 (≈ 1280 µM) | 16 (≈ 40 µM) | 64 (≈ 160 µM) | 512 (≈ 1280 µM) | 32 (≈ 80 µM) | 512 (≈ 1280 µM) | 64 (≈ 160 µM) | 512 (≈ 1280 µM) | 16 (≈ 40 µM) | 32 (≈ 80 µM) | 211 |
| O=C(/C(=C/c1ccc(C(F)(F)F)cc1)n1cnc2cc(F)ccc2c1=O)c1nccs1 | 16 (≈ 35.9 µM) | 1 (≈ 2.25 µM) | 4 (≈ 8.98 µM) | 4 (≈ 8.98 µM) | 4 (≈ 8.98 µM) | 4 (≈ 8.98 µM) | 8 (≈ 18 µM) | 16 (≈ 35.9 µM) | 8 (≈ 18 µM) | 2 (≈ 4.49 µM) | 2 (≈ 4.49 µM) | > 250 |
| O=C(/C(=C/c1ccccc1)n1cnc2cc(Cl)ccc2c1=O)c1nccs1 | 8 (≈ 20.3 µM) | 4 (≈ 10.2 µM) | 2 (≈ 5.08 µM) | 2 (≈ 5.08 µM) | 1 (≈ 2.54 µM) | 4 (≈ 10.2 µM) | 8 (≈ 20.3 µM) | 4 (≈ 10.2 µM) | 4 (≈ 10.2 µM) | 2 (≈ 5.08 µM) | 2 (≈ 5.08 µM) | 222 |
| O=C(/C(=C/c1ccc2ccccc2c1)n1cnc2cc(Cl)ccc2c1=O)c1nccs1 | 4 (≈ 9.01 µM) | 16 (≈ 36 µM) | 16 (≈ 36 µM) | 4 (≈ 9.01 µM) | 16 (≈ 36 µM) | 4 (≈ 9.01 µM) | 32 (≈ 72.1 µM) | 4 (≈ 9.01 µM) | 4 (≈ 9.01 µM) | 4 (≈ 9.01 µM) | 32 (≈ 72.1 µM) | 192 |
| O=C(/C(=C/c1ccc(C(F)(F)F)cc1)n1cnc2c(Cl)cc(Cl)cc2c1=O)c1nccs1 | 128 (≈ 258 µM) | 1 (≈ 2.01 µM) | 8 (≈ 16.1 µM) | 1 (≈ 2.01 µM) | 64 (≈ 129 µM) | 4 (≈ 8.06 µM) | 4 (≈ 8.06 µM) | 8 (≈ 16.1 µM) | 4 (≈ 8.06 µM) | 8 (≈ 16.1 µM) | 1 (≈ 2.01 µM) | > 250 |
| O=C(/C(=C/c1ccc(N2CCCCC2)cc1F)n1cnc2cc(Cl)ccc2c1=O)c1nccs1 | 512 (≈ 1030 µM) | 128 (≈ 259 µM) | 2 (≈ 4.04 µM) | 32 (≈ 64.6 µM) | 512 (≈ 1030 µM) | 512 (≈ 1030 µM) | 512 (≈ 1030 µM) | 128 (≈ 259 µM) | 512 (≈ 1030 µM) | 512 (≈ 1030 µM) | 512 (≈ 1030 µM) | 181 |
| O=C(/C(=C/c1ccc[nH]1)n1cnc2cc(Cl)ccc2c1=O)c1nccs1 | 512 (≈ 1340 µM) | 64 (≈ 167 µM) | 2 (≈ 5.22 µM) | 256 (≈ 669 µM) | 512 (≈ 1340 µM) | 64 (≈ 167 µM) | 256 (≈ 669 µM) | 256 (≈ 669 µM) | 512 (≈ 1340 µM) | 512 (≈ 1340 µM) | 256 (≈ 669 µM) | 203 |
| CCn1cc(/C=C(/C(=O)c2nccs2)n2cnc3cc(Cl)ccc3c2=O)c2ccccc21 | 512 (≈ 1110 µM) | 128 (≈ 278 µM) | 1 (≈ 2.17 µM) | 32 (≈ 69.4 µM) | 512 (≈ 1110 µM) | 512 (≈ 1110 µM) | 512 (≈ 1110 µM) | 128 (≈ 278 µM) | 512 (≈ 1110 µM) | 512 (≈ 1110 µM) | 512 (≈ 1110 µM) | > 250 |
| O=C(/C(=C/c1ccc(Cl)cc1)n1cnc2cc(Cl)ccc2c1=O)c1nccs1 | 16 (≈ 37.4 µM) | 256 (≈ 598 µM) | 4 (≈ 9.34 µM) | 1 (≈ 2.33 µM) | 4 (≈ 9.34 µM) | 2 (≈ 4.67 µM) | 16 (≈ 37.4 µM) | 2 (≈ 4.67 µM) | 8 (≈ 18.7 µM) | 4 (≈ 9.34 µM) | 64 (≈ 149 µM) | > 250 |
